# Key:
# glucocorticoid receptor = molecular target: T1, glucocorticoid receptor (Homo sapiens, UniProt P04150); assay: HepG2 Tyrosine Aminotransferase (TAT) Assay; assay type: cell-based
# T1 construct: endogenous in cells; host or cells: HepG2
# T1 sequence (P04150 1-777): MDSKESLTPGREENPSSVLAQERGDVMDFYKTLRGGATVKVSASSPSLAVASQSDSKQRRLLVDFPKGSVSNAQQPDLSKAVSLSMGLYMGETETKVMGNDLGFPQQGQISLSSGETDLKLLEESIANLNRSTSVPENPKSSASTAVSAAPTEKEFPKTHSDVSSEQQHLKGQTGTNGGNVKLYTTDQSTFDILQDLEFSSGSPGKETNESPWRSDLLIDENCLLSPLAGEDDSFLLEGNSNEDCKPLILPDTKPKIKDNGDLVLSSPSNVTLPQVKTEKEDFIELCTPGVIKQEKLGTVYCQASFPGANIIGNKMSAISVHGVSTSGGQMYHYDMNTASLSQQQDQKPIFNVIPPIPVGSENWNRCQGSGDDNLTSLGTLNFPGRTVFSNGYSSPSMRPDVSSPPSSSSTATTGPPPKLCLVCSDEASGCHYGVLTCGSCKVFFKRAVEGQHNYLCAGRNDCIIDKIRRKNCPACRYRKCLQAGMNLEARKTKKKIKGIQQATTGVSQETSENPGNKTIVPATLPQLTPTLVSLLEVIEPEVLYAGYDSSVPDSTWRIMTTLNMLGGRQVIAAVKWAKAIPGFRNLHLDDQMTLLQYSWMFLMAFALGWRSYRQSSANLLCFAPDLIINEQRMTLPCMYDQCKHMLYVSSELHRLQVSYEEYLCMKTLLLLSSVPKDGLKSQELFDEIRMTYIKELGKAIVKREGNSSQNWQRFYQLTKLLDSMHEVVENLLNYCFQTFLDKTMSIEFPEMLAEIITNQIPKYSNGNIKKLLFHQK
# Experimental: Glucocorticoid mediated activation of TAT occurs by transactivation of glucocorticoid response elements in the TAT promoter by glucocorticoid receptor-agonist complex.
# HepG2 cells were cultured using MEME media supplemented with 10% (v/v) foetal bovine serum; 2 mM L-glutamine and 1% (v/v) NEAA at 37° C., 5%/95% (v/v) CO2/air.
# Compounds were serially half log diluted in 100% (v/v) dimethylsulphoxide from a 10 mM stock.
# HepG2 cells were then lysed with 30 μl of cell lysis buffer containing a protease inhibitor cocktail for 15 minutes at 4° C. […] After 2 hours incubation at 37° C. the reaction was terminated by the addition of 15 μl of 10 M aqueous potassium hydroxide solution, and the plates incubated for a further 30 minutes at 37° C.
# [compound] and fitting the data to a 4 parameter logistic equation.
# human recombinant GR = molecular target: T2, human recombinant GR (Homo sapiens, UniProt P04150); assay: Human Glucocorticoid Receptor (GR) Fluorescence Polarisation (FP) Binding Assay; conditions: Ki from IC50 by ligand depletion correction; displacement of Fluorome GS Red
# T2 construct: purchased PanVera P2812
# T2 sequence (P04150 1-777): T1 sequence (P04150 1-777)
# Experimental: The following is a description of a FP assay for measuring compound inhibition of labelled glucocorticoid binding to the human recombinant GR.
# The binding affinity of test compounds was determined using a FP binding assay using human recombinant GR (PanVera P2812) and a fluorescent labelled glucocorticoid ligand (Fluorome GS Red) (PanVera P2894). The presence of inhibitors prevents the formation of a GS Red/GR complex resulting in a decrease in the measured polarisation value. The change in polarisation value in the presence of test compounds is used to calculate the binding affinity of the compound for GR.
# This assay was performed in 384 well, black, round-bottom, polypropylene micro titre plates in a final volume of 20 μl. The assay contained 5 μl 1 nM GR (final concentration), 5 μl 0.5 nM Fluorome GS Red (final concentration) in the presence of 10p test compounds. Positive control wells (high polarisation) receive, 10 μl 2% (v:v) DMSO vehicle (1% (v/v) final concentration)+5 μl 1 nM GR and 5 μl 0.5 nM Fluorome GS Red. […] Assay blank background wells (used for normalisation) receive 15 μl 1×GS screening buffer+5 μl GR.
# For the IC50 determination (concentration of compound that displaces 50% of the bound GS Red), compounds were tested at eight different concentrations in duplicate in two independently performed experiments. Compounds were prepared as solubilised solids at 10 mM in DMSO. On the day of assay, an 8 point half-log serial dilution (55 μl DMSO+25 μl compound solution) was prepared. A 1:50 dilution (1 μl compound solution+49 μl 1×GR screening buffer) was prepared for each compound. The compounds were prepared at 2× final assay concentration.
# The plates were mixed and incubated for 4 hour at room temperature. FP was measured using an Envision Excite plate reader with 535 nm excitation and 590 nm emission interference filters.
# Milli-polarisation (mP) values were calculated using the below equation: mP=1000*(S−G*P)/(S+G*P) where S and P are assay blank background subtracted fluorescence units, G=G-factor (1.07).
# Compound IC50 values were calculated by plotting a [compound] v. % inhibition curve and fitting the data to a 4-parameter logistic fit equation.
# 10×GR screening buffer (100 mM potassium phosphate pH 7.4, 200 mM Na2MoO4, 1 mM EDTA, 20% (v/v) DMSO). To prepare 1×GR screening buffer, combine 1 ml 10×GR screening buffer (PanVera P2814)+1 ml stabilising peptide (PanVera P2815)+7.95 ml 4° C. MQ water. Add 50p 1M DTT, vortex and place on ice until use.
Structure (SMILES),Ki (glucocorticoid receptor),Ki (human recombinant GR)
"CC(C)n1ncc(S(=O)(=O)N2CC[C@H]3Cc4c(cnn4-c4ccc(F)cc4)C[C@]3(C(=O)c3nccs3)C2)n1 [Example 2Z, ((4aR,8aS)-1-(4-fluorophenyl)-6-((2-isopropyl-2H-1,2,3-triazol-4-yl)sulfonyl)-4,4a,5,6,7,8,8a,9-octahydro-1H-pyrazolo[3,4-g]isoquinolin-4a-yl)(thiazol-2-yl)methanone]",20 to 100 nM,< 0.5 nM
"O=C(c1ccccn1)[C@]12Cc3cnn(-c4ccc(F)cc4)c3C[C@@H]1CCN(S(=O)(=O)c1cccc(F)c1)C2 [Example 2F, ((4aR,8aS)-1-(4-fluorophenyl)-6-((3-fluorophenyl)sulfonyl)-4,4a,5,6,7,8,8a,9-octahydro-1H-pyrazolo[3,4-g]isoquinolin-4a-yl)(pyridin-2-yl)methanone]",20 to 100 nM,> 1 nM
"CCCn1cc(S(=O)(=O)N2CC[C@H]3Cc4c(cnn4-c4ccc(F)cc4)C[C@]3(C(=O)c3cc(C(F)(F)F)ccn3)C2)cn1 [Example 2D, ((4aR,8aS)-1-(4-fluorophenyl)-6-((1-propyl-1H-pyrazol-4-yl)sulfonyl)-4,4a,5,6,7,8,8a,9-octahydro-1H-pyrazolo[3,4-g]isoquinolin-4a-yl)(4-(trifluoromethyl)pyridin-2-yl)methanone]",< 20 nM,< 0.5 nM
"Cn1nccc1S(=O)(=O)N1CC[C@H]2Cc3c(cnn3-c3ccc(F)cc3)C[C@]2(C(=O)c2cc(C(F)(F)F)ccn2)C1 [Example 2J, ((4aR,8aS)-1-(4-fluorophenyl)-6-((1-methyl-1H-pyrazol-5-yl)sulfonyl)-4,4a,5,6,7,8,8a,9-octahydro-1H-pyrazolo[3,4-g]isoquinolin-4a-yl)(4-(trifluoromethyl)pyridin-2-yl)methanone]",20 to 100 nM,> 1 nM
"CCCn1cc(S(=O)(=O)N2CC[C@H]3Cc4c(cnn4-c4ccc(F)cc4)C[C@]3(C(=O)c3ccccn3)C2)cn1 [Example 2B, ((4aR,8aS)-1-(4-fluorophenyl)-6-((1-propyl-1H-pyrazol-4-yl)sulfonyl)-4,4a,5,6,7,8,8a,9-octahydro-1H-pyrazolo[3,4-g]isoquinolin-4a-yl)(pyridin-2-yl)methanone]",< 20 nM,< 0.5 nM
"Cn1ncc(S(=O)(=O)N2CC[C@H]3Cc4c(cnn4-c4ccc(F)cc4)C[C@]3(C(=O)c3ccccn3)C2)n1 [Example 2AC, ((4aR,8aS)-1-(4-fluorophenyl)-6-((2-methyl-2H-1,2,3-triazol-4-yl)sulfonyl)-4,4a,5,6,7,8,8a,9-octahydro-1H-pyrazolo[3,4-g]isoquinolin-4a-yl)(pyridin-2-yl)methanone]",20 to 100 nM,> 1 nM
"Cn1ncc(S(=O)(=O)N2CC[C@H]3Cc4c(cnn4-c4ccc(F)cc4)C[C@]3(C(=O)c3cscn3)C2)n1 [Example 2AI, ((4aR,8aS)-1-(4-fluorophenyl)-6-((2-methyl-2H-1,2,3-triazol-4-yl)sulfonyl)-4,4a,5,6,7,8,8a,9-octahydro-1H-pyrazolo[3,4-g]isoquinolin-4a-yl)(thiazol-4-yl)methanone]",20 to 100 nM,> 1 nM
"Cn1cc(S(=O)(=O)N2CC[C@H]3Cc4c(cnn4-c4ccc(F)cc4)C[C@]3(C(=O)c3cc(C(F)(F)F)ccn3)C2)nn1 [Example 2P, ((4aR,8aS)-1-(4-fluorophenyl)-6-((1-methyl-1H-1,2,3-triazol-4-yl)sulfonyl)-4,4a,5,6,7,8,8a,9-octahydro-1H-pyrazolo[3,4-g]isoquinolin-4a-yl)(4-(trifluoromethyl)pyridin-2-yl)methanone]",20 to 100 nM,> 1 nM
"O=C(c1ccccn1)[C@]12Cc3cnn(-c4ccc(F)cc4)c3C[C@@H]1CCN(S(=O)(=O)c1ccc(F)c(F)c1)C2 [Example 1C, ((4aR,8aS)-6-((3,4-difluorophenyl)sulfonyl)-1-(4-fluorophenyl)-4,4a,5,6,7,8,8a,9-octahydro-1H-pyrazolo[3,4-g]isoquinolin-4a-yl)(pyridin-2-yl)methanone]",20 to 100 nM,> 1 nM
"O=C(c1ccccn1)[C@]12Cc3cnn(-c4ccc(F)cc4)c3C[C@@H]1CCN(S(=O)(=O)c1cccc(C(F)(F)F)c1)C2 [Example 2G, ((4aR,8aS)-1-(4-fluorophenyl)-6-((3-(trifluoromethyl)phenyl)sulfonyl)-4,4a,5,6,7,8,8a,9-octahydro-1H-pyrazolo[3,4-g]isoquinolin-4a-yl)(pyridin-2-yl)methanone]",20 to 100 nM,> 1 nM
"CCn1ncc(S(=O)(=O)N2CC[C@H]3Cc4c(cnn4-c4ccc(F)cc4)C[C@]3(C(=O)c3cscn3)C2)n1 [Example 2AK, ((4aR,8aS)-6-((2-ethyl-2H-1,2,3-triazol-4-yl)sulfonyl)-1-(4-fluorophenyl)-4,4a,5,6,7,8,8a,9-octahydro-1H-pyrazolo[3,4-g]isoquinolin-4a-yl)(thiazol-4-yl)methanone]",< 20 nM,–
"O=C(c1nccs1)[C@]12Cc3cnn(-c4ccc(F)cc4)c3C[C@@H]1CCN(S(=O)(=O)c1cccc(C(F)(F)F)n1)C2 [Example 2AG, ((4aR,8aS)-1-(4-fluorophenyl)-6-((6-(trifluoromethyl)pyridin-2-yl)sulfonyl)-4,4a,5,6,7,8,8a,9-octahydro-1H-pyrazolo[3,4-g]isoquinolin-4a-yl)(thiazol-2-yl)methanone]",20 to 100 nM,0.5 to 1 nM
"Cn1ccc(S(=O)(=O)N2CC[C@H]3Cc4c(cnn4-c4ccc(F)cc4)C[C@]3(C(=O)c3cc(C(F)(F)F)ccn3)C2)n1 [Example 2I, ((4aR,8aS)-1-(4-fluorophenyl)-6-((1-methyl-1H-pyrazol-3-yl)sulfonyl)-4,4a,5,6,7,8,8a,9-octahydro-1H-pyrazolo[3,4-g]isoquinolin-4a-yl)(4-(trifluoromethyl)pyridin-2-yl)methanone]",20 to 100 nM,0.5 to 1 nM
"O=C(c1ccccn1)[C@]12Cc3cnn(-c4ccc(F)cc4)c3C[C@@H]1CCN(S(=O)(=O)c1ccc(Cl)c(Cl)c1)C2 [Example 1B, ((4aR,8aS)-6-((3,4-dichlorophenyl)sulfonyl)-1-(4-fluorophenyl)-4,4a,5,6,7,8,8a,9-octahydro-1H-pyrazolo[3,4-g]isoquinolin-4a-yl)(pyridin-2-yl)methanone]",20 to 100 nM,> 1 nM
"CC(C)n1cc(S(=O)(=O)N2CC[C@H]3Cc4c(cnn4-c4ccc(F)cc4)C[C@]3(C(=O)c3ccccn3)C2)nn1 [Example 2AF, ((4aR,8aS)-1-(4-fluorophenyl)-6-((1-isopropyl-1H-1,2,3-triazol-4-yl)sulfonyl)-4,4a,5,6,7,8,8a,9-octahydro-1H-pyrazolo[3,4-g]isoquinolin-4a-yl)(pyridin-2-yl)methanone]",20 to 100 nM,> 1 nM

# Reference: patent publication US12139486B2, “Octahydro fused azadecalin glucocorticoid receptor modulators” (Corcept Therapeutics, Inc., priority 2013, dated 2024)
